Results taken from patent US20140242599A1, “MATERIALS AND METHODS FOR DETERMINING SENSITIVITY POTENTIAL OF COMPOUNDS” (ELECTROPHORETICS LIMITED, priority 2011, published 2014).

Tests used:
[1] = tested on: Primary human keratinocytes; assay: TMT proteomic profiling of exposed keratinocytes, PLS score plot of 102 protein biomarkers; type: cell-based; conditions: second study, four donors, FIG. 2
[2] = mouse, in vivo; cited from earlier work
[3] = tested on: Metallothionein-1G (MT1G); assay: Western Blot quantification of MT1G in keratinocyte cell extracts; type: cell-based; conditions: primary human keratinocytes, 24 h exposure, FIG. 5
Protocol: (§1) Primary human keratinocytes were obtained from Provitro (Berlin, Germany). Cells were seeded at 3×10E5 cells per 10 cm dish. Cells were grown in serum free supplemented keratinocyte growth medium (Provitro) to 80-90% density prior to treatment. Cells were grown at 37° C. in 5% CO2. Second and third passages post-cryopreserved seedings were used for experiments
(§2) Test chemicals were added and the plates were incubated for 24 hours at 37° C. in a 5% CO2 humidified incubator. When a chemical was dissolved in DMSO, a final concentration of 0.1% DMSO was used in the relevant negative control. After 24 h incubation, cells were harvested and washed twice in PBS.
Cells were lysed in four volumes of 100 mM TEAB (triethylammonium bicarbonate), pH 8.5+0.1, 1 mM TCEP (tris[2-carboxyethyl]phosphine*HCl), 0.1% SDS. […]
(§3) As an alternative approach to find predictive markers for sensitizing potential we measured the concentration of biomarkers using commercially available immunoassays to measure the levels of three biomarkers. The three proteins to be measured by Western Blot or ELISA were selected on the basis of a review of literature references to biomarkers of stress toxicity pathways. […]
. […] Effects of contact sensitizers and irritants on MT1G production was determined by Western Blot analysis using MT1G specific antibodies (clone UC1MT, Biozol, Eching, Germany). […]

[4] = tested on: Heat shock 70 kDa protein 1 (HSP70, HSPA1A; HSPA1B); assay: HSP70-specific ELISA of keratinocyte cell extracts; type: cell-based; conditions: primary human keratinocytes, 24 h exposure, FIG. 3
[5] = tested on: luciferase gene under the control of the ARE of the AKR1C2 gene in HaCaT keratinocytes; conditions: screen of 43 sensitizers and 24 non-sensitizers; cited from earlier work
[6] = tested on: Aldo-keto reductase family 1, member C2 (AKR1C2); assay: Western Blot quantification of AKR1C2 in keratinocyte cell extracts; type: cell-based; conditions: primary human keratinocytes, 24 h exposure, FIG. 4
Protocol: as §1, §2
Cells were lysed in four volumes of 100 mM TEAB (triethylammonium bicarbonate), pH 8.5+0.1, 1 mM TCEP (tris[2-carboxyethyl]phosphine*HCl), 0.1% SDS. After suspending the cell pellet in lysis buffer the suspension was heated at 95° C. for ten minutes in a thermomixer ([Eppendorf, Thermomixer comfort). […]
as §3

Nrf2 pathway = conditions: cited from earlier work

Row | Structure (SMILES) | relative distance from the centre of the PLS score plot (size of response) [1] | LLNA EC3 (%) [2] [%] | LLNA outcome / sensitizer potency class [2] | MT1G induction (Western Blot) [3] | HSP70 induction (ELISA) [4] | KeratinoSens identification of sensitizer [5] | AKR1C2 induction (Western Blot) [6] | reactivity of BDKs, NEHKs and THP-1 (Nrf2 pathway) (Nrf2 pathway)
1 | CN(C)C(=S)SSC(=S)N(C)C [TMTD, Tetramethyl thiuram disulfide] | smaller distance to the centre of the plot | 5.2 | (moderate) | most strongly induced | most strongly induced |  |  | 
2 | O=C(Oc1ccccc1)c1ccccc1 [phenyl benzoate] |  |  |  |  |  | false negative |  | 
3 | O=CC=Cc1ccccc1 [CA, 3-phenyl-2-Propenal] |  | 2.8 | (moderate) |  | most strongly induced |  | only induced in CA exposed samples | 
4 | O=[N+]([O-])c1ccc(Cl)c([N+](=O)[O-])c1 [DNCB, 1-chloro-2,4-dinitrobenzene] |  |  |  |  | small |  |  | high reactivity
